Test results published in ChEMBL document CHEMBL5352395, “The discovery of novel antifungal phenylpyridines derivatives based on CYP53 binding model” (Eur J Med Chem, 2022).
In brackets after ≈: the same amount, converted by molar mass. Activity calls are given as the source filed them. No cut-off for these calls is given here.

Assays:
[1] = test system: Pichia kudriavzevii; assay: Antifungal activity against Candida krusei ATCC 6258 assessed as reduction in fungal growth; format: functional
[2] = test system: Candida albicans; assay: Antifungal activity against Candida albicans ATCC 10231 assessed as reduction in fungal growth; format: functional
[3] = test system: Nakaseomyces glabratus; assay: Antifungal activity against Candida glabrata ATCC 0001 assessed as reduction in fungal growth; format: functional
[4] = test system: Aspergillus fumigatus; assay: Antifungal activity against Aspergillus fumigatus KM8001 assessed as reduction in fungal growth; format: functional
[5] = test system: Candida albicans; assay: Antifungal activity against Candida albicans 17# assessed as reduction in fungal growth; format: functional
[6] = test system: Candida albicans; assay: Antifungal activity against Candida albicans 901 assessed as reduction in fungal growth; format: functional
[7] = Inhibition of CYP53 in Candida albicans ATCC SC5314 assessed as benzoate level at 8 ug/ml incubated for 16 hrs by LC-MS analysis (Rvb=11.4%); format: ADME; parameters: scale not given: the % may be the effect or the level left; conditions: at 8 µg/mL
[8] = Inhibition of CYP53 in Candida albicans ATCC SC5314 assessed as 4-hydroxybenzoate level at 8 ug/ml incubated for 16 hrs by LC-MS analysis (Rvb=82.7%); format: ADME; parameters: scale not given: the % may be the effect or the level left; conditions: at 8 µg/mL
[9] = Inhibition of CYP53 in Candida albicans ATCC SC5314 assessed as unknown sterol level at 8 ug/ml incubated for 16 hrs by LC-MS analysis (Rvb=5.9%); format: ADME; parameters: scale not given: the % may be the effect or the level left; conditions: at 8 µg/mL
[10] = test system: Candida albicans; assay: Induction of apoptosis in Candida albicans ATCC SC5314 assessed as live cells incubated for 24 hrs by Annexin V-FITC/PI staining based flow cytometry method (reference value: 92.69%); format: functional
[11] = test system: Candida albicans; assay: Induction of apoptosis in Candida albicans ATCC SC5314 assessed as mid apoptotic cells incubated for 24 hrs by Annexin V-FITC/PI staining based flow cytometry method (reference value: 1.03%); format: functional
[12] = test system: Candida albicans; assay: Induction of apoptosis in Candida albicans ATCC SC5314 assessed as necrotic cells incubated for 24 hrs by Annexin V-FITC/PI staining based flow cytometry method (reference value: 5.36%); format: functional
[13] = test system: Candida albicans; assay: Induction of apoptosis in Candida albicans ATCC SC5314 assessed as late apoptotic cells incubated for 24 hrs by Annexin V-FITC/PI staining based flow cytometry method (reference value: 1.22%); format: functional
[14] = test system: Candida albicans; assay: Induction of mitochondrial membrane potential loss in Candida albicans ATCC SC5314 assessed as polarized cells at 1 uM/ml incubated for 24 hrs by JC-1 staining based flow cytometry analysis (reference value: 93.17%); format: functional
[15] = Toxicity in ip dosed mouse assessed as AST level in plasma administered on day 2,4,6,8 and 10 (reference value: 60.3 +/- 5.4 IU/L); format: organism-based; conditions: in vivo, 240 h, time 10 day
[16] = Toxicity in ip dosed mouse assessed as ALT level in plasma administered on day 2,4,6,8 and 10 (reference value: 35.9 +/- 4.6 IU/L); format: organism-based; conditions: in vivo, 240 h, time 10 day
[17] = Toxicity in ip dosed mouse assessed as blood urea nitrogen level in plasma administered on day 2,4,6,8 and 10 (reference value: 7.4 +/ -0.6 mmol/L); format: organism-based; conditions: in vivo, 240 h, time 10 day
[18] = Toxicity in ip dosed mouse assessed as increase in body weight administered for 10 days; format: organism-based; conditions: in vivo, 240 h, time 10 day
[19] = Toxicity in ip dosed mouse assessed as pathological damage in lungs administered on day 2,4,6,8,10 and measured on day 12 by H and E staining based analysis; format: organism-based; conditions: in vivo, 288 h, time 12 day
[20] = Toxicity in ip dosed mouse assessed as pathological damage in liver administered on day 2,4,6,8,10 and measured on day 12 by H and E staining based analysis; format: organism-based; conditions: in vivo, 288 h, time 12 day
[21] = Toxicity in ip dosed mouse assessed as pathological damage in spleen administered on day 2,4,6,8,10 and measured on day 12 by H and E staining based analysis; format: organism-based; conditions: in vivo, 288 h, time 12 day
[22] = Toxicity in ip dosed mouse assessed as pathological damage in kidneys administered on day 2,4,6,8,10 and measured on day 12 by H and E staining based analysis; format: organism-based; conditions: in vivo, 288 h, time 12 day
[23] = Toxicity in ip dosed mouse assessed as pathological damage in heart administered on day 2,4,6,8,10 and measured on day 12 by H and E staining based analysis; format: organism-based; conditions: in vivo, 288 h, time 12 day
[24] = test system: Candida albicans; assay: Antifungal activity against Candida albicans ATCC SC5314 assessed as reduction in fungal cell proliferation by measuring cell count (reference value: 235); format: functional
[25] = test system: Candida albicans; assay: Antifungal activity against Candida albicans ATCC SC5314 infected in mouse assessed as reduction in fungal infection administered intraperitoneally on day 2,4,6,8 and 10 and measured after 12 days; format: functional, organism-based; conditions: route ip, time 12.0 day
[26] = test system: Candida albicans; assay: Antifungal activity against Candida albicans ATCC SC5314 infected in mouse assessed as reduction in fungal growth in infection region administered intraperitoneally on day 2,4,6,8 and 10 and measured after 12 days by H and E/GMS staining based analysis; format: functional, organism-based; conditions: route ip, time 12.0 day
[27] = test system: Candida albicans; assay: Antifungal activity against Candida albicans ATCC SC5314 infected in mouse assessed as recovery of regular cell distribution administered intraperitoneally on day 2,4,6,8 and 10 and measured after 12 days by H and E/GMS staining based analysis; format: functional, organism-based; conditions: route ip, time 12.0 day
[28] = test system: Candida albicans; assay: Antifungal activity against Candida albicans ATCC SC5314 infected in mouse assessed as disappearance of nuclear aggregation phenomenon administered intraperitoneally on day 2,4,6,8 and 10 and measured after 12 days by H and E/GMS staining based analysis; format: functional, organism-based; conditions: route ip, time 12.0 day
[29] = test system: Candida albicans; assay: Antifungal activity against Candida albicans ATCC SC5314 assessed as induction of ROS production by measuring increase in fluorescence intensity; format: functional, organism-based
[30] = test system: Candida albicans; assay: Induction of morphological changes in Candida albicans ATCC SC5314 assessed as disappearance of marginal region of fungal cells at 1 uM/ml incubated for 48 hrs by transmission electron microscopy; format: functional, organism-based
[31] = test system: Candida albicans; assay: Induction of morphological changes in Candida albicans ATCC SC5314 assessed as increase in cell permeability at 1 uM/ml incubated for 48 hrs by transmission electron microscopy; format: functional, organism-based
[32] = test system: Candida albicans; assay: Induction of morphological changes in Candida albicans ATCC SC5314 assessed as rupture of cell membranes at 1 uM/ml incubated for 72 hrs by transmission electron microscopy; format: functional, organism-based
[33] = test system: Candida albicans; assay: Induction of morphological changes in Candida albicans ATCC SC5314 assessed as leakage of endogenous substances in fungal cells at 1 uM/ml incubated for 72 hrs by transmission electron microscopy; format: functional, organism-based
[34] = test system: Candida albicans; assay: Antifungal activity against Candida albicans ATCC SC5314 assessed as reduction in fungal cell proliferation by measuring cell count (reference value: 216); format: functional
[35] = test system: Candida albicans; assay: Induction of morphological changes in Candida albicans ATCC SC5314 assessed as reduction in cell wall thickness at 1 uM/ml incubated for 48 hrs by transmission electron microscopy; format: functional, organism-based
[36] = test system: Candida albicans; assay: Induction of morphological changes in Candida albicans ATCC SC5314 assessed as appearance of cell wall and membrane remnants at 1 uM/ml incubated for 96 hrs by transmission electron microscopy; format: functional, organism-based

CCC(C)C(NC(=O)c1ccc(C(=O)N2CCC(C)CC2)cc1)C(=O)Nc1ccncc1 (stereo unspecified)
MIC [1]: 1 µg/mL (≈ 2.29 µM)
MIC [2]: 1 µg/mL (≈ 2.29 µM)
MIC [3]: 2 µg/mL (≈ 4.58 µM)
MIC [4]: 8 µg/mL (≈ 18.3 µM)
MIC [5]: 4 µg/mL (≈ 9.16 µM)
MIC [6]: 8 µg/mL (≈ 18.3 µM)

OC(Cn1cncn1)(Cn1cncn1)c1ccc(F)cc1F [FLUCONAZOLE]
MIC [1]: 0.5 µg/mL (≈ 1.63 µM)
MIC [2]: 0.5 µg/mL (≈ 1.63 µM)
MIC [3]: 0.5 µg/mL (≈ 1.63 µM)
MIC [4]: 4 µg/mL (≈ 13.1 µM)
MIC [5]: > 16 µg/mL
MIC [6]: > 16 µg/mL

COC(=O)c1ccc(C(=O)NC(C)C(=O)Nc2ccncc2)cc1 (stereo unspecified)
MIC [1]: 1 µg/mL (≈ 3.05 µM)
MIC [2]: 0.5 µg/mL (≈ 1.53 µM)
MIC [3]: 2 µg/mL (≈ 6.11 µM)
MIC [4]: 4 µg/mL (≈ 12.2 µM)
MIC [5]: 4 µg/mL (≈ 12.2 µM)
MIC [6]: 1 µg/mL (≈ 3.05 µM)

CC1CCN(C(=O)/C=C/c2ccc(C(=O)NC(C)C(=O)Nc3ccncc3)cc2)CC1 (stereo unspecified)
MIC [1]: 4 µg/mL (≈ 9.51 µM)
MIC [2]: 2 µg/mL (≈ 4.76 µM)
MIC [3]: 4 µg/mL (≈ 9.51 µM)
MIC [4]: 4 µg/mL (≈ 9.51 µM)
MIC [5]: 8 µg/mL (≈ 19 µM)
MIC [6]: 4 µg/mL (≈ 9.51 µM)

CCC(C)C(NC(=O)c1ccc(/C=C/C(=O)N2CCC(C)CC2)cc1)C(=O)Nc1ccncc1 (stereo unspecified)
MIC [1]: 1 µg/mL (≈ 2.16 µM)
MIC [2]: 2 µg/mL (≈ 4.32 µM)
MIC [3]: 2 µg/mL (≈ 4.32 µM)
MIC [4]: > 16 µg/mL
MIC [5]: 4 µg/mL (≈ 8.65 µM)
MIC [6]: 8 µg/mL (≈ 17.3 µM)

COC(=O)c1ccc(C(=O)NCC(=O)Nc2ccncc2)cc1
MIC [1]: 0.5 µg/mL (≈ 1.6 µM)
MIC [2]: 1 µg/mL (≈ 3.19 µM)
MIC [3]: 1 µg/mL (≈ 3.19 µM)
MIC [4]: 4 µg/mL (≈ 12.8 µM)
MIC [5]: 2 µg/mL (≈ 6.38 µM)
MIC [6]: 2 µg/mL (≈ 6.38 µM)
Activity [7]: 64.1%
Activity [8]: 29.5%
Activity [9]: 6.4%
Activity [10]: 65.51%
Activity [11]: 0.46%
Activity [12]: 33.06%
Activity [13]: 0.97%
Activity [14]: 65.59%
Activity [15]: 68.4 IU/L
Activity [16]: 42.8 IU/L
Activity [17]: 6.6 mmol/L
Activity [18]: Toxic
Activity [19]: Non-Toxic
Activity [20]: Non-Toxic
Activity [21]: Non-Toxic
Activity [22]: Non-Toxic
Activity [23]: Non-Toxic
Activity [24]: 112
Activity [25]: Active
Activity [26]: Active
Activity [27]: Active
Activity [28]: Active

CC1CCN(C(=O)c2ccc(C(=O)NC(C)C(=O)Nc3ccncc3)cc2)CC1 (stereo unspecified)
MIC [1]: 1 µg/mL (≈ 2.54 µM)
MIC [2]: 0.5 µg/mL (≈ 1.27 µM)
MIC [3]: 0.5 µg/mL (≈ 1.27 µM)
MIC [4]: 2 µg/mL (≈ 5.07 µM)
MIC [5]: 2 µg/mL (≈ 5.07 µM)
MIC [6]: 2 µg/mL (≈ 5.07 µM)
Activity [7]: 68.5%
Activity [8]: 23.3%
Activity [9]: 8.2%
Activity [10]: 58.17%
Activity [11]: 0.31%
Activity [12]: 40.61%
Activity [13]: 0.91%
Activity [14]: 68.3%
Activity [15]: 53.7 IU/L
Activity [16]: 47.4 IU/L
Activity [17]: 6.1 mmol/L
Activity [29]: Active
Activity [30]: Active
Activity [31]: Active
Activity [32]: Active
Activity [33]: Active
Activity [18]: Toxic
Activity [19]: Non-Toxic
Activity [20]: Non-Toxic
Activity [21]: Non-Toxic
Activity [22]: Non-Toxic
Activity [23]: Non-Toxic
Activity [34]: 123
Activity [35]: Active
Activity [36]: Active
Activity [25]: Active
Activity [26]: Active
Activity [27]: Active
Activity [28]: Active

CC1CCN(C(=O)c2ccc(C(=O)NCC(=O)Nc3ccncc3)cc2)CC1
MIC [1]: 0.5 µg/mL (≈ 1.31 µM)
MIC [2]: 1 µg/mL (≈ 2.63 µM)
MIC [3]: 2 µg/mL (≈ 5.26 µM)
MIC [4]: 4 µg/mL (≈ 10.5 µM)
MIC [5]: 4 µg/mL (≈ 10.5 µM)
MIC [6]: 4 µg/mL (≈ 10.5 µM)

CCC(C)C(NC(=O)c1ccc(C(=O)OC)cc1)C(=O)Nc1ccncc1 (stereo unspecified)
MIC [1]: 2 µg/mL (≈ 5.41 µM)
MIC [2]: 4 µg/mL (≈ 10.8 µM)
MIC [3]: 4 µg/mL (≈ 10.8 µM)
MIC [4]: > 16 µg/mL
MIC [5]: 2 µg/mL (≈ 5.41 µM)
MIC [6]: 4 µg/mL (≈ 10.8 µM)

CC1CCN(C(=O)/C=C/c2ccc(C(=O)NCC(=O)Nc3ccncc3)cc2)CC1
MIC [1]: 2 µg/mL (≈ 4.92 µM)
MIC [2]: 1 µg/mL (≈ 2.46 µM)
MIC [3]: 1 µg/mL (≈ 2.46 µM)
MIC [4]: 8 µg/mL (≈ 19.7 µM)
MIC [5]: 8 µg/mL (≈ 19.7 µM)
MIC [6]: 4 µg/mL (≈ 9.84 µM)
